The values that follow come from ChEMBL document CHEMBL4190161 (Medchemcomm, 2016).

Each structure is given as a SMILES string. Calls of active or inactive are those of the source. No cut-off for these calls is given here. Starred links: 1 amine or outer side, 2 acyl side, 3 side chain; linkers in the order of their positions; H or OH if unused. Residues, ends and D or L forms follow the SMILES beside them. γGlu = O=C(O)[C@H](CCC(=O)[*:2])N[*:1]

A short description of assay [1]: Antioxidant activity of the compound in phosphate buffer at pH 7.4 assessed as trolox equivalent of AAPH-induced peroxyl radical scavenging activity measured at 2 mins interval for 80 minutes by ORAC-FL assay. The class given is functional.
Assay [2] in a line: Antioxidant activity of the compound in phosphate buffer at pH 7.4 assessed as trolox equivalent of AAPH-induced peroxyl radical scavenging activity at 6 uM pretreated for 2 mins followed by AAPH addition measured at 2 mins interval for 108 minutes by ORAC-FL assay. The class given is functional.
Assay [3] can be described thus: Antioxidant activity assessed as DPPH radical scavenging activity incubated for 30 mins under dark condition by spectrophotometric method. The class given is functional.
The nature of assay [4]: Metal chelating activity assessed as compound-Fe2+ complex formation.
Assay [5] in a line: Antioxidant activity assessed as trolox equivalent of hydroxyl radical scavenging activity up to 25 mg/ml measured after 60 mins by fenton reaction method. The class given is functional.
A short description of assay [6]: Antioxidant activity of the compound in phosphate buffered saline at pH 7.4 assessed as trolox equivalent of ABTS radical scavenging activity after 6 mins by spectrophotometric method. The class given is functional.
Assay [7] in a line: Antioxidant activity assessed as ABTS radical scavenging activity measured within 12 mins by spectrophotometric method. The class given is functional.
Assay [8] is described as follows: Antioxidant activity of the compound in phosphate buffer at pH 6.6 assessed as trolox equivalent of potassium ferric cyanide ion reducing activity at 0.4 mM after 20 mins by spectrophotometric method. The class given is functional.
A short description of assay [9]: Antioxidant activity assessed as DPPH radical scavenging activity measured after 20 mins by spectrophotometric method. The class given is functional.
A short description of assay [10]: Antioxidant activity assessed as DPPH radical scavenging activity measured after 30 mins by spectrophotometric method. The class given is functional.

As to `CSCC[C@H](N)C(=O)O`, the Activity (umolequiv/umol) in [1] is 1.13.
Take `CC(C)C[C@H](NC(=O)[C@H](CCC(=O)O)NC(=O)CN)C(=O)O` (H-Gly-Glu-Leu-OH): the Activity (umolequiv/umol) in [2] was -0.1. In [3], the IC50 came to 521 mM. Also, the result in assay [4] and in [5] was inactive.
Take `N[C@@H](CCC(=O)N[C@@H](CS)C(=O)N[C@@H](Cc1cnc[nH]1)C(=O)O)C(=O)O` (γGlu-Cys-His-OH): the outcome in assay [6] was Active.
Take `N[C@@H](Cc1ccc(O)cc1)C(=O)N[C@@H](CCC(=O)O)C(=O)NCC(=O)O` (H-Tyr-Glu-Gly-OH): the Activity (umolequiv/umol) in assay [2] was determined as 1.2. The outcome in assay [7] was Active. Also, in [3], the 50% inhibitory concentration (IC50) amounted to 78.8 mM. Besides, in [4], the outcome was inactive. Further, the Activity (mmolequiv/mmol) in [5] was 0.47.
In the case of `CC(C)C[C@H](NC(=O)[C@@H](N)CCCCN)C(=O)N[C@@H](CCC(=O)O)C(=O)O` (H-Lys-Leu-Glu-OH), the Activity (umolequiv/umol) in assay [2] is -0.04. Also, the concentration for half-maximal inhibition (IC50) in assay [3] was found to be 348 mM. Moreover, the result in assay [4] and in [5] was inactive.
Consider `CC(C)C[C@H](NC(=O)[C@H](Cc1cnc[nH]1)NC(=O)[C@@H](N)Cc1ccc(O)cc1)C(=O)O`, for which, in assay [2], the Activity (umolequiv/umol) was 0.36. In addition, the IC50 in assay [3] amounted to 99.9 mM. For the same compound, the outcome in assay [4] was inactive. Further, the result in [5] was Active.
For the compound `N[C@@H](Cc1c[nH]cn1)C(=O)O`, in [1], the Activity (umolequiv/umol) worked out at 0.073.
Turning to `CC(C)C[C@H](N)C(=O)N[C@@H](Cc1cnc[nH]1)C(=O)NCC(=O)O` (H-Leu-His-Gly-OH), the Activity (umolequiv/umol) in assay [2] is -0.48. The IC50 in assay [3] was 102 mM. For the same compound, in [4], the result was inactive. Besides, in assay [5], the result was Active.
For the compound `CC(C)[C@H](NC(=O)[C@@H](N)CCCCN)C(=O)N[C@@H](Cc1cnc[nH]1)C(=O)O` (H-Lys-Val-His-OH), in assay [2], the Activity (umolequiv/umol) was 0.03. In addition, the IC50 in [3] turned out to be 285 mM. The result in [4] was inactive. Besides, the outcome in [5] was Active.
With `CC(C)C[C@H](NC(=O)[C@H](CCCCN)NC(=O)[C@@H](N)Cc1ccccc1)C(=O)O` (H-Phe-Lys-Leu-OH), the Activity (umolequiv/umol) is -0.06 in assay [2] and 20.4 in assay [8]. Further, the IC50 in assay [3] came out at 4.2 mM. In addition, the outcome in assay [4] was inactive. In addition, in assay [5], the outcome was Active.
Turning to `N[C@@H](Cc1ccccc1)C(=O)O`, the Activity (umolequiv/umol) in assay [1] was 0.0025.
As to `N[C@@H](CCC(=O)N[C@@H](CS)C(=O)NCC(=O)O)C(=O)O` [GLUTATHIONE], the Activity (umolequiv/umol) was found to be 0.65 in [2] and 50.7 in assay [8]. Further, the result in [7] was Active. The IC50 in assay [3] was 0.16 mM. Moreover, the result in [4] was inactive.
For the compound `N[C@@H](CS)C(=O)O`, the Activity (umolequiv/umol) in [1] stood at 0.149.
Regarding `N[C@@H](CCC(=O)O)C(=O)N[C@@H](CS)C(=O)N[C@@H](Cc1cnc[nH]1)C(=O)O` (H-Glu-Cys-His-OH), the Activity (umolequiv/umol) in assay [2] stood at 0.1; in assay [8], 61.2. Moreover, the result in [7] and in assay [5] was Active. Besides, the outcome in assay [9] and in assay [4] was inactive. In addition, the IC50 in assay [3] was determined as 0.11 mM.
Take `N[C@@H](Cc1ccc(O)cc1)C(=O)O`: the Activity (umolequiv/umol) in [1] is 1.57.
For the compound `O=C(O)CNC(=O)[C@H](CS)NC(=O)[C@@H]1CCCN1` (H-Pro-Cys-Gly-OH), the Activity (umolequiv/umol) stood at 0.2 in assay [2] and 25.2 in assay [8]. Besides, the outcome in [6] and in [5] was Active. The outcome in assay [10] and in assay [4] was inactive. The IC50 in [3] turned out to be 0.3 mM.
